Test results: the CheMixHub ionic liquid set

Test: xn = mol fraction of the nth substance listed
Conditions: 101 kPa

NC(=O)CC[C@H](N)C(=O)O + CCCCCCCCCCCC[N+](C)(C)C.[Br-] + O
viscosity [mPa·s]
Conditions	293.15 K	298.15 K	303.15 K	308.15 K	313.15 K
x1 = 0.0001801, x2 = 0.0001083	1.02	0.908	0.822	0.738	0.667
x1 = 0.0001801, x2 = 0.0001624	1.024	0.911	0.824	0.74	0.67
x1 = 0.0001801, x2 = 0.0002165	1.028	0.913	0.825	0.742	0.672
x1 = 0.0001801, x2 = 0.0002706	1.036	0.914	0.827	0.744	0.674
x1 = 0.0001801, x2 = 0.0003247	1.045	0.917	0.828	0.745	0.676
x1 = 0.0001801, x2 = 0.0003788	1.051	0.921	0.832	0.747	0.677
x1 = 0.0001801, x2 = 0.0004328	1.057	0.926	0.835	0.749	0.68
x1 = 0.0001801, x2 = 0.0004869	1.062	0.932	0.837	0.754	0.683
x1 = 0.0001801, x2 = 0.000541	1.067	0.937	0.841	0.757	0.687
x1 = 0.0001802, x2 = 5.413e-05	1.018	0.905	0.819	0.735	0.666
x1 = 0.0008997, x2 = 0.0005438	1.057	0.91	0.821	0.751	0.678
x1 = 0.0008998, x2 = 0.0003807	1.045	0.898	0.81	0.739	0.668
x1 = 0.0008998, x2 = 0.0004351	1.051	0.902	0.814	0.743	0.67
x1 = 0.0008998, x2 = 0.0004894	1.053	0.906	0.818	0.747	0.674
x1 = 0.0008999, x2 = 0.000272	1.041	0.893	0.805	0.734	0.664
x1 = 0.0008999, x2 = 0.0003263	1.043	0.896	0.807	0.736	0.666
x1 = 0.0009, x2 = 0.0001632	1.036	0.889	0.801	0.729	0.66
x1 = 0.0009, x2 = 0.0002176	1.039	0.891	0.803	0.732	0.662
x1 = 0.0009001, x2 = 5.44e-05	1.033	0.884	0.797	0.725	0.655
x1 = 0.0009001, x2 = 0.0001088	1.035	0.886	0.799	0.727	0.657
x1 = 0.001798, x2 = 0.0001642	1.015	0.873	0.788	0.725	0.642
x1 = 0.001798, x2 = 0.000219	1.02	0.875	0.79	0.726	0.643
x1 = 0.001798, x2 = 0.0002737	1.025	0.878	0.792	0.728	0.645
x1 = 0.001798, x2 = 0.0003284	1.031	0.88	0.793	0.73	0.647
x1 = 0.001798, x2 = 0.0003831	1.034	0.885	0.797	0.732	0.648
x1 = 0.001798, x2 = 0.0004378	1.037	0.888	0.803	0.733	0.65
x1 = 0.001798, x2 = 0.0004925	1.039	0.892	0.807	0.736	0.653
x1 = 0.001798, x2 = 0.0005472	1.042	0.896	0.813	0.738	0.655
x1 = 0.001799, x2 = 5.475e-05	1.004	0.867	0.784	0.721	0.634
x1 = 0.001799, x2 = 0.0001095	1.01	0.87	0.785	0.722	0.639

CC[n+]1ccn(C)c1.CS(=O)(=O)[O-] + CS(C)=O
x1 = 0.3333
Conditions	viscosity [mPa·s]
283.15 K	5.66
288.15 K	5.04
293.15 K	4.47
298.15 K	3.94
303.15 K	3.47
308.15 K	3.04
313.15 K	2.66
318.15 K	2.33
323.15 K	2.05
328.15 K	1.81
333.15 K	1.63
338.15 K	1.49
343.15 K	1.4
348.15 K	1.36
353.15 K	1.33

CCCCCCCCCCCCCC[N+](C)(C)C.[Br-] + O
298.15 K
Conditions	viscosity [mPa·s]
x1 = 2.973e-05	0.8984
x1 = 4.144e-05	0.8992
x1 = 4.541e-05	0.9002
x1 = 6.289e-05	0.9005
x1 = 6.739e-05	0.9013
x1 = 7.262e-05	0.9019
x1 = 0.0001005	0.9029
x1 = 0.0001191	0.9053
x1 = 0.000178	0.9083

CC(=O)[O-].[K+] + O + CCCC[n+]1ccn(C)c1.O=S(=O)([O-])C(F)(F)F
Conditions	viscosity [mPa·s]
308.15 K, x1 = 0.01574, x2 = 0.9011	1.515
